Experimental data: US20050214248A1, “Non-glycosylated polyacrylamide conjugates and their use for cytoprotection” (University of Bern, priority 2002, published 2005)
Read-outs that look alike come from different tables or passages of the source.

Tests used:
P-selectin = target: T1, P-selectin (Homo sapiens, UniProt P16109); conditions: cited from earlier work
T1 sequence (P16109 42-830): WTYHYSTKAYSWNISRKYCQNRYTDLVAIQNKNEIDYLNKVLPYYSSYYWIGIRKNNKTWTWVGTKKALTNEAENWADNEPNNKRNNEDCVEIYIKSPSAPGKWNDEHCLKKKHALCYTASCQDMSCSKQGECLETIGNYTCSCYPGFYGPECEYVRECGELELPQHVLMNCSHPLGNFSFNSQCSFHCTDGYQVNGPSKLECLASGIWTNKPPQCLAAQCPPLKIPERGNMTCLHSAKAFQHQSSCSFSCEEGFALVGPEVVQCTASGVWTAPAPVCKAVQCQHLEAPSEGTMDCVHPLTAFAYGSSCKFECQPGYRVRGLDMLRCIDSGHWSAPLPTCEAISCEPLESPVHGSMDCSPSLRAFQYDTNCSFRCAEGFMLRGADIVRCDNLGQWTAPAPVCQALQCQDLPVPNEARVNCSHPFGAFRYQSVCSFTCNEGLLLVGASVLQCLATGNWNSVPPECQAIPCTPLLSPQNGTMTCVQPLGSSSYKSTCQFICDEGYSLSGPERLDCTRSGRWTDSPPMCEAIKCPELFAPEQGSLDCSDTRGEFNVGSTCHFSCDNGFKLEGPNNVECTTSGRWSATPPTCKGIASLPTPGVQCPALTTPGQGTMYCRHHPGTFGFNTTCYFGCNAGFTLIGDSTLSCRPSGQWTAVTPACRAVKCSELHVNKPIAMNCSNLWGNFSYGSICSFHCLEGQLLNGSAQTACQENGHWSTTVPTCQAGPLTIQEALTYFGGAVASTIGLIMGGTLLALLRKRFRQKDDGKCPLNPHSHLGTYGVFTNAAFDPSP

[1] = test system: Peptone-induced acute rat peritonitis; assay: Rat peritoneal inflammation model (peptone-induced acute peritonitis, neutrophil extravasation); format: in vivo
Procedure: Acute rat peritonitis was induced as described in (Preobrazhenskaya, M. E., Berman, A. E., Mikhailov, V. I., Ushakova, N. A., Mazurov, A. V., Semenov, A. V., Usov, A. I., Nifant'ev, N. E., and Bovin, N. V. (1997) Fucoidan inhibits leukocyte recruitment in a model peritoneal inflammation in rat and blocks interaction of P-selectin with its carbohydrate ligand. Biochem. Mol. Biol. Int 43, 443-451) with some modifications. 10 ml of PBS containing 10% peptone was injected intraperitoneally into female Wistar rats (180-220 g). After 3 h rats were sacrificed and their peritoneal cavities were laved with 30 ml PBS containing 60 units/ml of heparin, 0.02% EDTA and 0.03% bovine serum. The total cell number in the lavage was counted and the cell suspension was concentrated by centrifugation at 400 g for 10 min. After 1:1 dilution with bovine serum smears were prepared and stained according to the Pappenheim method. Neutrophils were counted on two parallel slides and the total neutrophil number was calculated. The inhibitors were administered intravenously as a single dose in 0.3 ml sterile 0.9% NaCl 15 min after peptone injection. The same volume of NaCl solution Was injected into control animals. A difference between the control and tested groups was analyzed for statistical significance based on Student's t-test, p-values<0.05 were considered to be significant.
Peptone-induced acute rat peritonitis was characterized by neutrophil extravasation into the peritoneal cavities. […] A natural ligand such as recombinant PSGL-1 acts in a dose of about 1 mg/kg (S. P. Khor, K. McCarthy, M. Dupont, K. Murray, G. Timony. Pharmacokinetics, pharmacodynamics, allometry, and dose selection of rPSGL-Ig for phase I trial. J. Pharmacol. Exp. Ther., 293, 618-624 (2000); R. Hayward, B. Campbell, Y. K. Shin, R. Scalia, A. M. Lefer. Recombinant soluble P-selectin glycoprotein ligand-1 protects against myocardial ischemic reperfusion injury in cats. Cardiovascular Res., 41, 65-76 (1999)) which approaches the fucoidan activity under study. […]

recombinant P-selectin = target: T2, recombinant P-selectin (Homo sapiens, UniProt P16109); assay: In vitro assay for inhibition of P-selectin binding (HSO3Le^a-PAA-biotin binding to immobilized recombinant selectin); conditions: for inhibition of recombinant P-selectin in the cell-free assay: result in words
T2 construct: Recombinant ZZ-selectin (monovalent) lacking the transmembrane and cytosolic domains was produced as C-terminal chimera with the ZZ domain of protein A; made in house
T2 sequence (P16109 42-771 limits assumed): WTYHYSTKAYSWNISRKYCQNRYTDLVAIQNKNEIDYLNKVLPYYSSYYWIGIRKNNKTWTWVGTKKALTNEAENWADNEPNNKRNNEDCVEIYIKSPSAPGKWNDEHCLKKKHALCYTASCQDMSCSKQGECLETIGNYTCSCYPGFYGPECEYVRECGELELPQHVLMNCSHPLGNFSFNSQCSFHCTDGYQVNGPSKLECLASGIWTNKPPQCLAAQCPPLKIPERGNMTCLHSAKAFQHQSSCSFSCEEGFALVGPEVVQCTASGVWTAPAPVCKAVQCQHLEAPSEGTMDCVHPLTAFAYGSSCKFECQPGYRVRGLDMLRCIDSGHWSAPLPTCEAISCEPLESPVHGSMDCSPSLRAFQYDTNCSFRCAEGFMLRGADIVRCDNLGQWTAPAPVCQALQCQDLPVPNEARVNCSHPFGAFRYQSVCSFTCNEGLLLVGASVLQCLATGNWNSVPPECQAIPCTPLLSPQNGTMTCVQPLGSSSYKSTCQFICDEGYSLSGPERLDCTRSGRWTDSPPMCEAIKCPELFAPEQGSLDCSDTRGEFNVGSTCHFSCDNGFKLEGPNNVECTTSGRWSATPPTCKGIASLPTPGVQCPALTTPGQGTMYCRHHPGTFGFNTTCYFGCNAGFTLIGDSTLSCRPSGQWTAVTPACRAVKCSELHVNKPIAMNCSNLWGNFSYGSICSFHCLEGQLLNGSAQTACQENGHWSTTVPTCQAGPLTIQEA
Excerpt: The in vitro test-system is based on the inhibition of HSO3Le^a-PAA-biotin binding to recombinant P-selectin. For details, see example 1.
All PAA-based neoglycoconjugates were from 30 to 40 kDa and obtained according to standard methods (Gordeeva, E. A., Tuzikov, A. B., Galanina, O. E., Pochechueva, T. V. & Bovin, N. V. (2000). Microscale synthesis of glycoconjugate series and libraries. Anal. Biochem. 278, 230-232; Bovin, N. V., Korchagina, E. Yu., Zemlyanukhina, T. V., Byramova, N. E., Galanina, O. E., Zemlyakov, A. E., Ivanov, A. E., Zubov, V. P., and Mochalova, L. V. (1993) Synthesis of polymeric neoglycoconjugates based on N-substituted polyacrylamide. Glycoconj. J. 10, 142-151). sTyr-PAA (containing 80 mol % sTyr) was synthesized using 200% excess of sTyr in relation to the activated polymer. The degree of sTyr substitution was determined by the conjugate's increase in weight. Recombinant ZZ-selectin (monovalent) lacking the transmembrane and cytosolic domains was produced as C-terminal chimera with the ZZ domain of protein A (Priest, R., Nawaz, S., Green, P. M., and Bird, M. I. (1995). Adhesion of eosinophils to E- & P-selectin. Biochem. Soc. Trans. 23, 162S). Tripeptide Tyr-Tyr-Tyr (Bachem, Germany) and aminoglucitol (Sigma) were per-O-sulfated with SO3/Py complex (Field, R. A., Otter, A., Fu, W., Hindsgaul, O. Carbohydr. Res. 1995, 276, 347-363). Fucoidan was purchased from Sigma (USA).
The assay was performed on 96-Well plates. Human IgG was used as a primary coating reagent to immobilize recombinant selectin via the ZZ-domain of the fusion protein. The working concentration of selectin was 3 ng/well. […] Details of this assay were published in (Game, S. M., Rajapurohit, P. K., Clifford, M., Bird, M. I., Priest, R., Bovin, N. V., Nifant'ev, N. E., O'Beime, G., and Cook, N. D. (1998) Scintillation proximity assay for E-, P-, and L-selectin utilizing polyacrylamide-based neoglycoconjugates as ligands. Anal. Biochem. 258, 127-135; Tatyana V. Pochechueva, Oxana E. Galanina, Michael I. Bird, Nikolay E. Nifant'ev, Nicolai V. Bovin. Assembly of P-Selectin Ligands on a Polymeric Template, Chem&Biol, Vol. 9, 2002, p. 757-762; Natalia Ushakova, Marina Preobrazhenskaya, Mike I. Bird, Richard Priest, A. V. Semenov, A. V. Mazurov, Nikolay Ni-fant'ev, Tatyana Pochechueva, Oxaha Galanina, Nicolai Bovin. Monomeric and Multimeric Blockers of Selectins: Comparison of In Vitro and In Vivo Activity/Biol. Chem. Hoppe Seyler, 2002 submitted).

yield of neutrophils = conditions: mouse; Cecconi et al. 1994; cited from earlier work
[2] = inhibition of HSO3Le^a-PAA-biotin binding with P-selectin, means of at least triplicate determinations

Question: For Fucoidan, which IC50 (P-selectin; Pochechueva et al., Ley et al. 1993, repeating hexasaccharide units) is on record?
Answer: 100 nM

Question: What about the “Mean inhibition (% to control)” value ([1]; Series 2, 1.0 mg per rat i.v.) of the same compound?
Answer: 92 (p < 0.001) %

Question: And the “Number of neutrophils per rat × 10^−6” value ([1]; Series 2, 1.0 mg per rat i.v., mean ± SEM)?
Answer: 2.5 ± 0.5 × 10^−6

Question: And the “blocking of the inflammation process” value ([1]; result in words)?
Answer: definitely blocked the inflammation process

Question: And the IC50 (recombinant P-selectin; [2])?
Answer: 100 nM

Question: What about the IC50 in weight (recombinant P-selectin; inhibition of HSO3Le^a-PAA-biotin binding with P-selectin, weight concentration) of the same compound?
Answer: (100 ng/ml)^2

Question: For “Tripeptide Tyr-Tyr-Tyr per-O-sulfated with SO3/Py complex [sTyr-sTyr-sTyr]”, which “IC50, μM” value (recombinant P-selectin; [2]) is on record?
Answer: Nl

Question: And the “inhibition of recombinant P-selectin in the cell-free assay” value (recombinant P-selectin)?
Answer: unable to inhibit

Question: For `N[C@@H](Cc1ccc(OS(=O)(=O)O)cc1)C(=O)O` [sTyr, tyrosine-O-sulfate], which “IC50, μM” value (recombinant P-selectin; [2]) is on record?
Answer: Nl

Question: With `CC(=O)NC1C(O)OC(CO)C(OC2OC(C)C(O)C(O)C2O)C1OC1OC(CO)C(O)C(OS(=O)(=O)O)C1O` (centres unmarked) [HSO3Le^a, 3′-HSO3Galβ1-3(Fucα1-4)GIcNAc] as the compound, how does the “IC50, μM” value (recombinant P-selectin; [2]) read?
Answer: Nl

Question: For `O=P(O)(O)O[C@H]1[C@H](OP(=O)(O)O)[C@@H](OP(=O)(O)O)[C@H](OP(=O)(O)O)[C@@H](OP(=O)(O)O)[C@H]1OP(=O)(O)O` [Inositol hexaphosphate], which “dose inhibiting the yield of neutrophils (almost half of them)” value (yield of neutrophils) is on record?
Answer: about 70 mg/kg

Question: For “3-0-sulfated galactocerebroside [sulfatide]”, which IC50 (P-selectin; Marinier et al. 1997, sulfatide and some of its synthetic analogues) is on record?
Answer: 100 to 1000 nM

Question: With Hexa-O-sulfo-aminoglucitol as the compound, how does the “IC50, μM” value (recombinant P-selectin; [2]) read?
Answer: Nl

Question: And the “inhibition of recombinant P-selectin in the cell-free assay” value (recombinant P-selectin)?
Answer: unable to inhibit
